Data on five compounds can be found in patent US10105426B2, “Immunostimulatory combinations” (TRUSTEES OF DARTMOUTH COLLEGE, priority 2002, dated 2018).

Common to all, as to type: in vivo, C57BL6 mice
Experiment [1] concerns ovalbumin-specific CD8^+ T cells. As to the kind of experiment: Expansion of ovalbumin-specific CD8+ T cells after i.v. immunization with ovalbumin peptide (Example 1, MHC tetramer flow cytometry of spleen cells). The conditions noted are these: 100 μg ovalbumin peptide + 100 μg 1C10 anti-CD40 antibody + 200 μg IRM1 i.v., day 5, combination vs either agonist alone. The method, then:
Unless otherwise indicated, mice used in the following examples are C57BL6 mice, available from Charles River Laboratories, Inc., Wilmington, Mass.
MHC tetrameric reagent was prepared using a eukaryotic (Baculovirus) expression system as follows/described in Kedl et al., JEM 192(8):1105-1113 (2000).
2-5 Mice were immunized intravenously with (A) 100 μg ovalbumin peptide, (B) 100 μg ovalbumin peptide+100 μg anti-CD40 antibody (1C10), (C) 100 μg ovalbumin peptide+200 μg IRM1, or (D) 100 μg ovalbumin peptide+100 μg 1C10 anti-CD40 antibody+200 μg IRM1. At five days after the immunizations, the spleens were removed from the mice and homogenized. The homogenized cell suspension was stained with a major histocompatibility complex (MHC) tetrameric reagent for detecting ovalbumin-specific T cells (Kedl et al., JEM 192(8):1105-1113 (2000)), a CD8 stain (BD Biosciences Pharmingen, San Diego, Calif.), and a CD44 stain (BD Biosciences Pharmingen, San Diego, Calif.). When subjected to flow cytometry, ovalbumin-specific CD8^+ T cells are shown in the upper right quadrant of the dot plots shown in FIG. 1.

For experiment [2] the test system is unchanged. As to the kind of experiment: Expansion kinetics of ovalbumin-specific CD8+ T cells after i.p. immunization with whole ovalbumin (Example 2). Conditions: 5 mg ovalbumin + 50 μg FGK4.5 anti-CD40 antibody + 220 μg IRM1 i.p.; spleen, days 4-12. The method, then:
Mice were intraperitoneally injected with 5 mg ovalbumin (Sigma Chemical Co., St. Louis, Mo.), 50 μg FGK4.5 anti-CD40 antibody, and 220 μg IRM1. Mice were sacrificed on each of days four, five, six, nine, and twelve. The spleens were removed from the sacrificed mice and homogenized. The homogenized cell suspensions were stained and analyzed as described in Example 1. When subjected to flow cytometry, ovalbumin-specific CD8^+ T cells (top) and ovalbumin-specific CD8^+/CD44+ T cells (bottom) were identified and are shown in the upper right quadrant of each dot plot. The numbers in the upper right quadrant indicate the percentage of cells in that quadrant.

Experiment [3] concerns TRP2-ΔV-specific CD8^+ T cells. In words: Expansion of TRP2-ΔV-specific CD8+ T cells after i.v. immunization (Example 3). Conditions: 100 μg FGK4.5 + 200 μg IRM1 + 100 μg TRP2-ΔV peptide i.v.; spleen, day 5. The method, then: Mice were immunized intravenously with 100 μg FGK4.5 anti-CD40 antibody+200 μg IRM1 and either (A) no peptide, (B) 100 μg ovalbumin peptide, or (C) 100 μg TRP2-ΔV peptide. At five days after the immunizations, the spleens were removed from the mice and homogenized. The homogenized cell suspension was stained as in Example 1, except that the MHC tetramer reagent was prepared for detecting TRP2-ΔV-specific T cells. When subjected to flow cytometry, TRP2-ΔV-specific CD8^+ T cells are shown in the upper right quadrant of the dot plots shown in FIG. 3. The numbers in the upper right quadrant indicate the percentage of cells in that quadrant.

Another experiment has as its system CD8^+ memory T cells. As to the kind of experiment: Generation and re-activation of CD8+ memory T cells (Example 4). The conditions noted are these: day 0: 100 μg ovalbumin peptide + 200 μg IRM1 + 100 μg 1C10 i.v.; challenge day 28 with peptide or peptide + 200 μg IRM1; analysis day 33. As for the experimental part: Mice were immunized intravenously on day 0 with 100 μg ovalbumin peptide+200 μg IRM 1+100 μg of 1C10 anti-CD40 antibody. On day 28, the mice were either (A) left unchallenged, (B) challenged intravenously with 100 μg ovalbumin peptide, or (C) challenged intravenously with 100 μg ovalbumin peptide+200 μg IRM1. On day 33, the mice were sacrificed, the spleens removed and spleen cells homogenized. The homogenized cells were stained and analyzed as described in Example 1.

For experiment [4], the system named is melanoma B16ova tumor cells. As to the kind of experiment: Tumor growth after melanoma B16ova challenge, immunization with ovalbumin peptide (Example 6). The conditions noted are these: B16ova intradermal day 0; immunization day 7 with 100 μg ovalbumin peptide + 200 μg IRM + 100 μg 1C10; measured day 21. The method, then: Mice were challenged intradermally on day 0 with 1×10^5 melanoma B16ova tumor cells in PBS (Kedl et al. PNAS 98(19):10811-10816). On day 7, the mice were immunized with either (A) 100 μg ovalbumin peptide, (B) 100 μg ovalbumin peptide+200 μg IRM1, or (C) 100 μg ovalbumin peptide+200 μg IRM1+100 μg 1C10 anti-CD40 antibody. On day 21, the mice were sacrificed and the tumors were measured in two dimensions by caliper.
Mice also were challenged as described above, and immunized as described above except that IRM2 was substituted for IRM1.

Experiment [5] relates to melanoma B16ova tumor cells. As to the kind of experiment: Tumor growth after melanoma B16ova challenge, immunization with tumor lysate (Example 7). The conditions noted are these: B16ova day 0; immunization day 7 with 1×10^6 CE tumor lysate ± 200 μg IRM1 ± 100 μg FGK4.5; measured days 14 and 20. The method, then: Mice were challenged with tumor on day 0 as in example 6. 5 mice each were immunized on days 7 with 1×10^6 cell equivalents (CE) (A) tumor lysate, (B) 1×10^6 CE tumor lysate+200 μg IRM1, (C) 1×10^6 CE tumor lysate+100 μg FGK4.5 anti-CD40 antibody, or (D)1×10^6 CE tumor lysate+200 μg IRM1+100 μg FGK4.5 anti-CD40 antibody. Tumor sizes were measured on the mice by caliper on days 14 and 20.

Experiment [6] concerns CD8^+ T cells. In words: CD8+ T cell expansion with IRM1 and different TNF/R agonists (Example 9). The conditions noted are these: 1 mg ovalbumin + 200 μg IRM1 + 200 μg TNF/R agonist; spleen, day 6. The method, then: Mice were immunized on day 0 with 1 mg ovalbumin, 200 μg IRM1, and either 200 μg CD40 ligand (FGK4.5), 200 μg 4-1BB ligand (anti-mouse 4-1BB antibody, clone 17B3, eBioscience, San Diego, Calif.), or no TNF/R agonist (control).

For experiment [7], the system named is CD8^+ T cells. As to the kind of experiment: CD8+ T cell expansion with CD40 agonist and different IRM compounds (Example 8). The conditions noted are these: 500 μg ovalbumin + 50 μg FGK4.5 + IRM (500 μg IRM3, 200 μg IRM4, 800 μg IRM5, 800 μg IRM2) i.p.; spleen, day 6; n=3. As for the experimental part: Mice were intraperitoneally injected on day 0 with 500 μg ovalbumin, 50 μg CD40 agonist (FGK4.5), and either 500 μg IRM3, 200 μg IRM4, 800 μg IRM5, 800 μg IRM2, or no IRM (control).

With `Cc1nc2c(N)nc3ccccc3c2n1CC(C)(C)O` [IRM1, 4-amino-α,α,2-trimethyl-1H-imidazo[4,5-c]quinolin-1-ethanol], the “Expansion of the ovalbumin-specific CD8^+ T cell population” value in experiment [1] was “greater than the expansion of the ovalbumin-specific CD8^+ T cell populations after stimulation with either the anti-CD40 antibody or IRM alone”. The “CD8^+ T cell expansion (ovalbumin-specific)” value in experiment [2] was “synergistic effect on CD8^+ T cell expansion”. The “Expansion of antigen-specific (TRP2-ΔV) CD8^+ T cells” value in experiment [3] is given as “synergistic expansion of antigen-specific CD8^+ T cells”. Besides, the “Generation and re-activation of CD8^+ memory T cells” value in the experiment on CD8^+ memory T cells is “generates a pool of long-lived CD8^+ memory T cells that can be reactivated by treatment with IRM and the antigen”. The “Tumor growth (tumor size by caliper)” value in experiment [4] was “slower tumor growth than immunization with IRM alone”; in experiment [5], “slower tumor growth than immunization with IRM alone or CD40 agonist alone”. In the experiment with CD8^+ T cells [6], the “Expansion of CD8^+ T cells” value is on record as “Synergistic expansion of CD8^+ T cells”.

`COCCc1nc2c(N)nc3ccccc3c2n1CCOCCN(C)C(=O)N1CCOCC1` [IRM2, N-(2-{2-[4-amino-2-(2-methoxyethyl)-1H-imidazo[4,5-c]quinolin-1-yl]ethoxy}ethyl)-N-methylmorpholine-4-carboxamide]: the “Expansion of CD8^+ T cells” value in the experiment on CD8^+ T cells [7] was “Synergistic expansion of CD8^+ T cells”.

Take `CCOCc1nc2c(N)nc3ccccc3c2n1CC(C)(C)N` [IRM3, 1-(2-amino-2-methylpropyl)-2-(ethoxymethyl)-1H-imidazo[4,5-c]quinolin-4-amine]: the “Expansion of CD8^+ T cells” value in the experiment on CD8^+ T cells [7] was “Synergistic expansion of CD8^+ T cells”.

For the compound `CCc1nc2c(N)nc3ccccc3c2n1CCCCNS(C)(=O)=O` [IRM4, N-[4-(4-amino-2-ethyl-1H-imidazo[4,5-c]quinolin-1-yl)butyl]-methanesulfonamide], the “Expansion of CD8^+ T cells” value with CD8^+ T cells [7] is given as “Synergistic expansion of CD8^+ T cells”.

`CCCc1nc2c(N)nc3ccccc3c2n1CCCCNS(C)(=O)=O` [IRM5, N-[4-(4-amino-2-propyl-1H-imidazo[4,5-c]quinolin-1-yl)butyl]-methanesulfonamide]: the “Expansion of CD8^+ T cells” value in the experiment on CD8^+ T cells [7] is reported as “Synergistic expansion of CD8^+ T cells”.
